Measured values published in patent publication US11433028B2, “Compositions for treating viral infections and methods for same” (Tiger Development, LLC, priority 2018, dated 2022).

Assays:
SARS-CoV-2 [1] = test system: SARS-CoV-2; parameters: species or system mice; details: mouse, in vivo
SARS-CoV-2 [2] = type: in vivo, mice

Substance: polylysine
- improved survival rate (SARS-CoV-2 [1]): 50%
- onset of morbidity (SARS-CoV-2 [1]): delayed onset of morbidity
- increase in total survival across the treatment period (SARS-CoV-2 [2]; mouse, in vivo): 5 fold
- mice surviving the treatment and exposure period (SARS-CoV-2 [2]; mouse, in vivo): six of ten
- body weight after the treatment and exposure period (recovery) (SARS-CoV-2 [2]; surviving mice, p<0.05, FIG. 3A/3B): increasing weight to near pre-treatment levels
